The values below come from PMC7581941, “Schedule-Dependent Synergy Between the Histone Deacetylase Inhibitor Belinostat and the Dihydrofolate Reductase Inhibitor Pralatrexate in T-and B-cell Lymphoma Cells in vitro” (Frontiers in Cell and Developmental Biology, 2020).

The subject of test [1] is HT cells. Nature of the test: Cell growth inhibition (cell counting) and median-drug effect analysis, HT. The format is cell-based. The settings on record: for IC50: HT.
For the next test, the system named is CCRF-CEM. Description: Cell growth inhibition (MTT), CCRF-CEM. Format: cell-based, human. Particulars: Homo sapiens, read-out: IC50 (50% growth inhibition); CCRF-CEM, 72 h exposure. How it is done:
(§1) Cells were treated immediately with a drug dilution series in cell culture medium (75 μL/well). After an incubation period of approximately 72 h, growth in the 96-wells plates was assessed by adding 15 μL MTT solution (stock solution 5 mg/ml in PBS, final concentration 0.5 mg/ml in culture medium) to each well. After incubation for 3 h in the 5% CO2 incubator with 100% humidity at 37°C, 150 μL acidified 2-propanol was added to the plates to dissolve the formazan crystals. The yellow-colored MTT stock solution is taken up and reduced to a purple formazan in living cells, which directly correlates to the amount of viable cells. As final step, the plates were measured at 540 (or 492) nm by the SPECTRAfluor spectrophotometer.

Another test has as its system Karpas-299. Description: Cell growth inhibition (MTT) and median-drug effect analysis, Karpas-299. The format is cell-based. Particulars: Homo sapiens, read-out: IC50 (50% growth inhibition); Karpas-299, 72 h exposure. On the procedure: as §1
(§2) Drug interaction in combination experiments was evaluated using the median-drug effect analysis using CalcuSyn software ([Bijnsdorp et al., 2011]). In order to evaluate combination indexes [CI] from different experiments, the CI values at Fraction Affected (FA) values >0.5 (preferably around 0.5, 0.75, and 0.9) were averaged for each specific experiment. The means of the separate experiments were subsequently averaged so that a mean ± Standard Error of the Mean (SEM) was calculated from three or more separate experiments. […]

The test system of a further test is SUDHL-5 cells. Nature of the test: Cell growth inhibition (MTT) and median-drug effect analysis, SUDHL-5. The settings on record: Homo sapiens, SU-DHL-5, read-out: IC50 (50% growth inhibition); SUDHL 5, 72 h exposure. The format is cell-based. How it is done: as §1
Drug interaction in combination experiments was evaluated using the median-drug effect analysis using CalcuSyn software ([Bijnsdorp et al., 2011]). In order to evaluate combination indexes [CI] from different experiments, the CI values at Fraction Affected (FA) values >0.5 (preferably around 0.5, 0.75, and 0.9) were averaged for each specific experiment. The means of the separate experiments were subsequently averaged so that a mean ± Standard Error of the Mean (SEM) was calculated from three or more separate experiments. […] Drug combinations were designed based on the standard CalcuSyn approach in which a series of drug concentrations were combined in a fixed molar ratio, based on the IC50 of each drug. A variation of this approach was a sequential scheduling in which cells were exposed for 72 h to BLS, while in the combination PLX was added after 24 h and cells were exposed from 24 to 72 h. In the non-fixed ratio approach one drug was used at the IC25 (concentration that results in 25% growth inhibition) and the other drug was added in a concentration range.

Test [2] relates to SUDHL-4 cells. Nature of the test: Cell growth inhibition (cell counting) and median-drug effect analysis, SUDHL-4. Format: cell-based. The settings on record: Homo sapiens, SU-DHL-4, read-out: IC50 (50% growth inhibition); SUDHL 4, 72 h exposure.
The test system of test [3] is HT cells. Nature of the test: FACS propidium iodide staining: cell cycle distribution and cell death, HT. The format is cell-based. On the procedure: (§3) Propidium iodide staining (DNA staining) was used to determine cell cycle distribution and the extent of cell death. Cells (120,000 per well in a 24-wells plate) were exposed to PLX or BLS or the combination for 24, 48, or 72 h. Cells were harvested, suspended in 1.0 ml phosphate buffered saline/1% Bovine serum albumin and fixed with 70% ethanol. After centrifugation the pellet was resuspended in hypotonic propidium iodide (0.1 mg/ml), Triton-X-100 (0.1%), sodium citrate (1 mg/ml) and RNAse A (0.5 mg/ml) (final concentrations in saline) and stored in dark on ice for 30 min ([De Wilt et al., 2012]). DNA content of the cells to determine cell cycle effects and cell kill was analyzed by a FACScalibur (Becton Dickinson Immunocytometry Systems, San Jose, CA, United States) with an acquisition of 10,000 events as described previously ([De Wilt et al., 2012]).

For test [4], the system named is SUDHL-4 cells. Nature of the test: FACS propidium iodide staining: cell death, SUDHL-4. Format: cell-based. Particulars: drugs at their IC50, untreated 5.0%. How it is done: as §3
The test system of a further test is Jeko-1. Description: Cell growth inhibition (MTT) and median-drug effect analysis, Jeko-1. The settings on record: Homo sapiens, read-out: IC50 (50% growth inhibition); Jeko-1, 72 h exposure. The format is cell-based. On the procedure: Cells were plated in 96-wells flat bottom plates, at 3,000 or 6,000 cells per well in culture medium (75 μL/well) or in 24-wells plates (60,000 cells/well) for the counting assays for which a Coulter Counter was used. Cells were treated immediately with a drug dilution series in cell culture medium (75 μL/well). […] After incubation for 3 h in the 5% CO2 incubator with 100% humidity at 37°C, 150 μL acidified 2-propanol was added to the plates to dissolve the formazan crystals. The yellow-colored MTT stock solution is taken up and reduced to a purple formazan in living cells, which directly correlates to the amount of viable cells. As final step, the plates were measured at 540 (or 492) nm by the SPECTRAfluor spectrophotometer. […] Drug interaction in combination experiments was evaluated using the median-drug effect analysis using CalcuSyn software ([Bijnsdorp et al., 2011]). […] The means of the separate experiments were subsequently averaged so that a mean ± Standard Error of the Mean (SEM) was calculated from three or more separate experiments. […] Drug combinations were designed based on the standard CalcuSyn approach in which a series of drug concentrations were combined in a fixed molar ratio, based on the IC50 of each drug. […]

The subject of the next test is Hut-29. Nature of the test: Cell growth inhibition (MTT) and median-drug effect analysis, Hut-29. The format is cell-based. Particulars: read-out: IC50 (50% growth inhibition); Hut-29, 72 h exposure. On the procedure:
as §1, §2

In the next test the test system is lymphoma cell lines. Nature of the test: Cell growth inhibition and median-drug effect analysis, panel of lymphoma cell lines. Format: cell-based. On the procedure:
Cells were plated in 96-wells flat bottom plates, at 3,000 or 6,000 cells per well in culture medium (75 μL/well) or in 24-wells plates (60,000 cells/well) for the counting assays for which a Coulter Counter was used. Cells were treated immediately with a drug dilution series in cell culture medium (75 μL/well). […] After incubation for 3 h in the 5% CO2 incubator with 100% humidity at 37°C, 150 μL acidified 2-propanol was added to the plates to dissolve the formazan crystals. The yellow-colored MTT stock solution is taken up and reduced to a purple formazan in living cells, which directly correlates to the amount of viable cells. As final step, the plates were measured at 540 (or 492) nm by the SPECTRAfluor spectrophotometer. […] Drug interaction in combination experiments was evaluated using the median-drug effect analysis using CalcuSyn software ([Bijnsdorp et al., 2011]). […] The means of the separate experiments were subsequently averaged so that a mean ± Standard Error of the Mean (SEM) was calculated from three or more separate experiments. […] Drug combinations were designed based on the standard CalcuSyn approach in which a series of drug concentrations were combined in a fixed molar ratio, based on the IC50 of each drug. A variation of this approach was a sequential scheduling in which cells were exposed for 72 h to BLS, while in the combination PLX was added after 24 h and cells were exposed from 24 to 72 h.

In another test the target is T1, FRα (Homo sapiens, UniProt P15328).
T1 construct: endogenous in cells; host or cells: KB cells
T1 sequence (P15328 25-257): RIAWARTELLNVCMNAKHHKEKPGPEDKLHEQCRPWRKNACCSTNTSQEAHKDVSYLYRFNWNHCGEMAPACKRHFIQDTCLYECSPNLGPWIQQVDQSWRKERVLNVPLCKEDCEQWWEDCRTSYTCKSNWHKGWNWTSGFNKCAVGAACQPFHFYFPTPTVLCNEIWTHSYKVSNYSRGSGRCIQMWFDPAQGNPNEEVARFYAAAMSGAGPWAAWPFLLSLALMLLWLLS
Description: Intact cell binding assay, displacement of radio-active folic acid from KB cells. The settings on record: inverse ratio of compound to displace 50% of radio-active folic acid, folic acid set at 1. How it is done: (§4) In order to determine to which extent PLX was a substrate for either the folate receptors, RFC or PCFT we used competition experiments in cell lines overexpressing either transporter ([Westerhof et al., 1995a], [b]; [Jansen et al., 1997]; [Ifergan et al., 2008]; [Lasry et al., 2008]; [van der Heijden et al., 2009]). For FRα and FRβ, we used an intact cell binding assay for competitive binding with KB cells and CHO-FRβ cells, respectively. […] For RFC we used a competition assay with 5 μM [^3H]-l-LV in CCRF-CEM/7A cells (RFC+++) for 2 min at 37°C. CEM-7A cells overexpress the RFC 30-fold over wild-type CCRF-CEM cells ([Jansen et al., 1990], [1997]).

In a further test the target is T2, FRβ (Homo sapiens, UniProt P14207).
T2 construct: expressed in transfected cells; host or cells: CHO-FRβ cells
T2 sequence (P14207 17-255, species assumed): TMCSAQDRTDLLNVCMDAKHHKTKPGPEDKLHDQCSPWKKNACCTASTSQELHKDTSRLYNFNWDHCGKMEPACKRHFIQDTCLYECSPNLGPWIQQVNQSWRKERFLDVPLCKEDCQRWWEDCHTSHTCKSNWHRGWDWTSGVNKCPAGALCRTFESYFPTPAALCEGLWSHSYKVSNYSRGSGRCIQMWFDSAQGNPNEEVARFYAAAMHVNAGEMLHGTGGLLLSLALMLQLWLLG
Nature of the test: Intact cell binding assay, displacement of radio-active folic acid from CHO-FRβ cells. The settings on record: folic acid set at 1. How it is done:
as §4

Read-outs that look alike come from different tables or passages of the source.

What is called IC50 is the point on the concentration scale where inhibition reaches its midpoint. With `O=C(/C=C/c1cccc(S(=O)(=O)Nc2ccccc2)c1)NO` [BLS, Belinostat], the “IC25 (concentration that results in 25% growth inhibition)” value in the test on HT cells [1] (HT cells, 72 h) was approximately 100 nM. For the same compound, the concentration for half-maximal inhibition (IC50) in the test on HT cells [1] (Homo sapiens, 72 h, read-out: IC50 (50% growth inhibition), HT, 72 h exposure) is approximately 220 nM; with HT cells [1] (read-out: IC50 (50% growth inhibition), 72 h exposure) it was 223 ± 23 nM; in the test with CCRF-CEM it was 95.8 ± 16.1 nM; in the test on Karpas-299 it was 203 ± 21 nM; in the test with SUDHL-5 cells, 112 ± 15 nM; in the test on SUDHL-4 cells [2] it was 72.3 ± 5 nM. For the same compound, the IC50 in the test on Jeko-1 was 103 ± 11 nM; in the test with Hut-29, 97 ± 12 nM; in the test on lymphoma cell lines (72 hr exposure, panel of cell lines, read-out: IC50, range over the cell lines), 72 to 233 nM. Also, the “accumulation of cells in the S-phase” value in the test with HT cells [3] (72 h exposure at IC50) is listed as “more pronounced”. The “accumulation of cells in the sub-G1 phase (cell death)” value amounted to 21% in the test with HT cells [3] (drugs at their IC50, untreated 3.5%) and 15.5% with SUDHL-4 cells [4]. The “effect of l-LV on sensitivity to BLS” value in the test on lymphoma cell lines (data not shown) is recorded as “did not affect sensitivity”.
Take `Nc1nc(=O)c2nc(CNc3ccc(C(=O)N[C@@H](CCC(=O)O)C(=O)O)cc3)cnc2[nH]1` [FA, Folic acid]: on FRα, the FR-α relative affinity is reported as 1. On FRβ, this compound gave an FRβ relative affinity of 1.
